Measured values taken from patent publication US8252737B2, “Antimicrobial peptides and methods of use” (priority 2004, dated 2012).
≈ marks a conversion by molar mass, not a printed value. Where two headings read alike, the source gives them in different places. Square brackets hold non-standard residues; d marks the D form. Peptide text beside a SMILES is read from it.

How the values were obtained:
[1] = Circular dichroism spectroscopy of helical structure (benign buffer and 50% TFE); format: physicochemical
Summary of the method: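 Peptide CD spectra at 25 °C, 190–250 nm, in benign buffer (50 mM KH2PO4/K2HPO4, 100 mM KCl, pH 7) and in the same buffer with 50% TFE. Samples were a 10-fold dilution of ~500 μM stock. Mean residue molar ellipticity at 222 nm gave relative α-helicity.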

human erythrocytes = assay: Hemolytic activity (MHC), Protocol A, 12 hours; conditions: for minimal hemolytic concentration (MHC): incubation for 12 hours at 37° C. (Tables 7 and 8)
Protocol: Measurement of Hemolytic Activity—Protocol A: Peptide samples were added to 1% human erythrocytes in phosphate buffered saline (0.08M NaCl; 0.043M Na2PO4; 0.011M KH2PO4) and reactions were incubated at 37° C. for 12 hours in microtiter plates. Peptide samples were diluted 2 fold in order to determine the concentration that produced no hemolysis. […] Hemoglobin release was determined spectrophotometrically at 562 nm. The hemolytic titer was the highest 2-fold dilution of the peptide that still caused release of hemoglobin from erythrocytes. The control for no release of hemoglobin was a sample of 1% erythrocytes without any peptide added. […] Peptide samples were diluted 2 fold in order to determine the concentration that produced no hemolysis. […] Hemoglobin release was determined spectrophotometrically at 570 nm. The hemolytic titer was the highest 2-fold dilution of the peptide that still caused release of hemoglobin from erythrocytes. The control for no release of hemoglobin was a sample of 1% erythrocytes without any peptide added.

gram-positive bacteria = system: gram-positive bacteria
Summary of the method: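 Microtiter dilution in LB no-salt or Mueller-Hinton medium, with BHI for Pseudomonas aeruginosa clinical isolates (final inoculum 1×10^6 CFU/ml). Plates were incubated 24 hours at 37° C. MIC was the lowest peptide concentration inhibiting growth.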

[2] = 25° C., relative to NAL in 50% TFE
[3] = 25° C., benign buffer (100 mM KCl, 50 mM PO4 pH 7.0)
[4] = 25° C., benign buffer diluted 1:1 (v/v) with TFE
[5] = 25° C., benign buffer, relative to NAL in 50% TFE
[6] = minimal hemolytic concentration on human red blood cells (hRBC), Table 9

## CC[C@H](C)[C@H](NC(=O)[C@H](C)NC(=O)[C@H](CCCCN)NC(=O)[C@H](CC(C)C)NC(=O)[C@H](C)NC(=O)[C@@H](NC(=O)[C@H](Cc1c[nH]cn1)NC(=O)[C@H](CC(C)C)NC(=O)[C@@H](NC(=O)[C@@H](NC(=O)[C@H](CCCCN)NC(=O)[C@H](NC(=O)[C@H](C)NC(=O)[C@H](CO)NC(=O)[C@H](CCCCN)NC(=O)[C@H](Cc1ccccc1)NC(=O)[C@@H](NC(=O)[C@H](CCCCN)NC(=O)[C@H](CC(C)C)NC(=O)[C@H](Cc1ccccc1)NC(=O)[C@H](CO)NC(=O)[C@H](CCCCN)NC(=O)[C@H](Cc1c[nH]c2ccccc12)NC(=O)[C@H](CCCCN)NC(C)=O)[C@@H](C)O)C(C)C)[C@@H](C)O)C(C)C)[C@@H](C)O)C(=O)N[C@@H](CO)C(=O)N[C@@H](CO)C(N)=O [NVD]
[1]; [2]
  % helix 50% TFE: 90%
[1]; [3]
  [θ]222 Benign: −2,800 deg · cm^2 · dmol^−1
[1]; [4]
  [θ]222 50% TFE: −26,000 deg · cm^2 · dmol^−1
[1]; [5]
  % helix Benign: 10%
Human erythrocytes; [6]
  MHC: 62.5 µg/mL
gram-positive bacteria; geometric mean MIC, Table 9
  MIC (μg/ml) Gram-positive: 2.8 µg/mL (≈ 0.945 µM)

## CC[C@H](C)[C@H](NC(=O)[C@H](C)NC(=O)[C@H](CCCCN)NC(=O)[C@H](CC(C)C)NC(=O)[C@H](C)NC(=O)[C@@H](NC(=O)[C@H](Cc1c[nH]cn1)NC(=O)[C@H](CC(C)C)NC(=O)[C@@H](NC(=O)[C@@H](NC(=O)[C@H](CCCCN)NC(=O)[C@@H](NC(=O)[C@H](C)NC(=O)[C@@H](C)NC(=O)[C@H](CCCCN)NC(=O)[C@H](Cc1ccccc1)NC(=O)[C@@H](NC(=O)[C@H](CCCCN)NC(=O)[C@H](CC(C)C)NC(=O)[C@H](Cc1ccccc1)NC(=O)[C@H](CO)NC(=O)[C@H](CCCCN)NC(=O)[C@H](Cc1c[nH]c2ccccc12)NC(=O)[C@H](CCCCN)NC(C)=O)[C@@H](C)O)C(C)C)[C@@H](C)O)C(C)C)[C@@H](C)O)C(=O)N[C@@H](CO)C(=O)N[C@@H](CO)C(N)=O [PAD] (Ac-KWKSFLKTFK[dA]AVKTVLHTALKAISS-NH2)
[1]; [2]
  % helix 50% TFE: 94%
[1]; [3]
  [θ]222 Benign: −3,050 deg · cm^2 · dmol^−1
[1]; [4]
  [θ]222 50% TFE: −27,300 deg · cm^2 · dmol^−1
[1]; [5]
  % helix Benign: 11%
Human erythrocytes
  MHC: 15.6 µg/mL
gram-positive bacteria
  MIC (μg/ml) Gram-positive: 3.8 µg/mL (≈ 1.29 µM)

## CC[C@H](C)[C@H](NC(=O)[C@H](C)NC(=O)[C@H](CCCCN)NC(=O)[C@H](CC(C)C)NC(=O)[C@H](C)NC(=O)[C@@H](NC(=O)[C@H](Cc1c[nH]cn1)NC(=O)[C@H](CC(C)C)NC(=O)[C@@H](NC(=O)[C@@H](NC(=O)[C@H](CCCCN)NC(=O)[C@@H](NC(=O)[C@H](C)NC(=O)[C@@H](CCCCN)NC(=O)[C@H](CCCCN)NC(=O)[C@H](Cc1ccccc1)NC(=O)[C@@H](NC(=O)[C@H](CCCCN)NC(=O)[C@H](CC(C)C)NC(=O)[C@H](Cc1ccccc1)NC(=O)[C@H](CO)NC(=O)[C@H](CCCCN)NC(=O)[C@H](Cc1c[nH]c2ccccc12)NC(=O)[C@H](CCCCN)NC(C)=O)[C@@H](C)O)C(C)C)[C@@H](C)O)C(C)C)[C@@H](C)O)C(=O)N[C@@H](CO)C(=O)N[C@@H](CO)C(N)=O [PKD] (Ac-KWKSFLKTFK[dK]AVKTVLHTALKAISS-NH2)
[1]; [2]
  % helix 50% TFE: 96%
[1]; [3]
  [θ]222 Benign: −2,500 deg · cm^2 · dmol^−1
[1]; [4]
  [θ]222 50% TFE: −27,800 deg · cm^2 · dmol^−1
[1]; [5]
  % helix Benign: 9%
Human erythrocytes
  MHC: 31.2 µg/mL
gram-positive bacteria
  MIC (μg/ml) Gram-positive: 2.8 µg/mL (≈ 0.932 µM)

## CC[C@H](C)[C@H](NC(=O)[C@H](C)NC(=O)[C@H](CCCCN)NC(=O)[C@H](CC(C)C)NC(=O)[C@H](C)NC(=O)[C@@H](NC(=O)[C@H](Cc1c[nH]cn1)NC(=O)[C@H](CC(C)C)NC(=O)[C@@H](NC(=O)[C@@H](NC(=O)[C@H](CCCCN)NC(=O)[C@@H](NC(=O)[C@H](C)NC(=O)[C@@H](CC(C)C)NC(=O)[C@H](CCCCN)NC(=O)[C@H](Cc1ccccc1)NC(=O)[C@@H](NC(=O)[C@H](CCCCN)NC(=O)[C@H](CC(C)C)NC(=O)[C@H](Cc1ccccc1)NC(=O)[C@H](CO)NC(=O)[C@H](CCCCN)NC(=O)[C@H](Cc1c[nH]c2ccccc12)NC(=O)[C@H](CCCCN)NC(C)=O)[C@@H](C)O)C(C)C)[C@@H](C)O)C(C)C)[C@@H](C)O)C(=O)N[C@@H](CO)C(=O)N[C@@H](CO)C(N)=O [PLD] (Ac-KWKSFLKTFK[dL]AVKTVLHTALKAISS-NH2)
[1]; [2]
  % helix 50% TFE: 90%
[1]; [3]
  [θ]222 Benign: −2,950 deg · cm^2 · dmol^−1
[1]; [4]
  [θ]222 50% TFE: −26,100 deg · cm^2 · dmol^−1
[1]; [5]
  % helix Benign: 10%
Human erythrocytes
  MHC: 31.2 µg/mL
gram-positive bacteria
  MIC (μg/ml) Gram-positive: 4.7 µg/mL (≈ 1.57 µM)

## CC[C@H](C)[C@H](NC(=O)[C@H](C)NC(=O)[C@H](CCCCN)NC(=O)[C@H](CC(C)C)NC(=O)[C@H](C)NC(=O)[C@@H](NC(=O)[C@H](Cc1c[nH]cn1)NC(=O)[C@H](CC(C)C)NC(=O)[C@@H](NC(=O)[C@@H](NC(=O)[C@H](CCCCN)NC(=O)[C@@H](NC(=O)[C@H](C)NC(=O)[C@@H](CO)NC(=O)[C@H](CCCCN)NC(=O)[C@H](Cc1ccccc1)NC(=O)[C@@H](NC(=O)[C@H](CCCCN)NC(=O)[C@H](CC(C)C)NC(=O)[C@H](Cc1ccccc1)NC(=O)[C@H](CO)NC(=O)[C@H](CCCCN)NC(=O)[C@H](Cc1c[nH]c2ccccc12)NC(=O)[C@H](CCCCN)NC(C)=O)[C@@H](C)O)C(C)C)[C@@H](C)O)C(C)C)[C@@H](C)O)C(=O)N[C@@H](CO)C(=O)N[C@@H](CO)C(N)=O [PSD]
[1]; [2]
  % helix 50% TFE: 90%
[1]; [3]
  [θ]222 Benign: −2,800 deg · cm^2 · dmol^−1
[1]; [4]
  [θ]222 50% TFE: −26,000 deg · cm^2 · dmol^−1
[1]; [5]
  % helix Benign: 10%
Human erythrocytes; [6]
  MHC: 15.6 µg/mL
gram-positive bacteria; Table 8
  geometric mean MIC against gram-positive bacteria: 2.3 µg/mL
gram-positive bacteria; geometric mean MIC, Table 9
  MIC (μg/ml) Gram-positive: 2.3 µg/mL (≈ 0.777 µM)
gram-positive bacteria; gram-positive bacteria, geometric mean MIC, Table 8
  fold improvement in antimicrobial activity compared to V681: 2.7

## CC[C@H](C)[C@H](NC(=O)[C@H](C)NC(=O)[C@H](CCCCN)NC(=O)[C@H](CC(C)C)NC(=O)[C@H](C)NC(=O)[C@@H](NC(=O)[C@H](Cc1c[nH]cn1)NC(=O)[C@H](CC(C)C)NC(=O)[C@@H](NC(=O)[C@@H](NC(=O)[C@H](CCCCN)NC(=O)[C@@H](NC(=O)[C@H](C)NC(=O)[C@H](NC(=O)[C@H](CCCCN)NC(=O)[C@H](Cc1ccccc1)NC(=O)[C@@H](NC(=O)[C@H](CCCCN)NC(=O)[C@H](CC(C)C)NC(=O)[C@H](Cc1ccccc1)NC(=O)[C@H](CO)NC(=O)[C@H](CCCCN)NC(=O)[C@H](Cc1c[nH]c2ccccc12)NC(=O)[C@H](CCCCN)NC(C)=O)[C@@H](C)O)C(C)C)C(C)C)[C@@H](C)O)C(C)C)[C@@H](C)O)C(=O)N[C@@H](CO)C(=O)N[C@@H](CO)C(N)=O [PVD] (Ac-KWKSFLKTFK[dV]AVKTVLHTALKAISS-NH2)
[1]; [2]
  % helix 50% TFE: 72%
[1]; [3]
  [θ]222 Benign: −2,400 deg · cm^2 · dmol^−1
[1]; [4]
  [θ]222 50% TFE: −20,800 deg · cm^2 · dmol^−1
[1]; [5]
  % helix Benign: 8%
Human erythrocytes
  fold decrease in hemolytic activity compared to the L-diastereomer: 16
  minimal hemolytic concentration (MHC): 125 µg/mL
Human erythrocytes; [6]
  MHC: 125.0 µg/mL
gram-positive bacteria
  MIC (μg/ml) Gram-positive: 6.6 µg/mL (≈ 2.22 µM)

## CC[C@H](C)[C@H](NC(=O)[C@H](C)NC(=O)[C@H](CCCCN)NC(=O)[C@H](CC(C)C)NC(=O)[C@H](C)NC(=O)[C@@H](NC(=O)[C@H](Cc1c[nH]cn1)NC(=O)[C@H](CC(C)C)NC(=O)[C@@H](NC(=O)[C@@H](NC(=O)[C@H](CCCCN)NC(=O)[C@@H](NC(=O)[C@H](C)NC(=O)[C@H](CO)NC(=O)[C@H](CCCCN)NC(=O)[C@H](Cc1ccccc1)NC(=O)[C@@H](NC(=O)[C@H](CCCCN)NC(=O)[C@H](CC(C)C)NC(=O)[C@H](Cc1ccccc1)NC(=O)[C@H](CO)NC(=O)[C@H](CCCCN)NC(=O)[C@H](Cc1c[nH]c2ccccc12)NC(=O)[C@H](CCCCN)NC(C)=O)[C@@H](C)O)C(C)C)[C@@H](C)O)C(C)C)[C@@H](C)O)C(=O)N[C@@H](CO)C(=O)N[C@@H](CO)C(N)=O [Peptide V681, reference compound]
[1]; 5° C., 100 mM KCl, 50 mM PO4 pH 7.4
  [θ]222 Benign: −13000 deg · cm^2 · dmol^−1
[1]; 5° C., relative to D-V681 in 50% TFE
  % helix 50% TFE: 99%
[1]; 5° C., benign buffer pH 7.4 containing 50% TFE
  [θ]222 50% TFE: −27950 deg · cm^2 · dmol^−1
[1]; 5° C., pH 7.4 benign, relative to D-V681 in 50% TFE
  % helix Benign: 46%
[1]; [2]
  % helix 50% TFE: 94%
[1]; [3]
  [θ]222 Benign: −12,900 deg · cm^2 · dmol^−1
[1]; [4]
  [θ]222 50% TFE: −27,300 deg · cm^2 · dmol^−1
[1]; [5]
  % helix Benign: 45%
Human erythrocytes
  minimal hemolytic concentration (MHC): 15.6 µg/mL
Human erythrocytes; [6]
  MHC: 15.6 µg/mL
gram-positive bacteria
  MIC (μg/ml) GM: 4.4 µg/mL (≈ 1.49 µM)
  MIC (μg/ml) Gram-positive: 6.3 µg/mL (≈ 2.13 µM)
  geometric mean MIC against gram-positive bacteria: 6.3 µg/mL
